Assay results: patent publication US7517874B2 (priority 2007, dated 2009)
pEC50: −log10 of the molar value.

Legend:
[1] = system: rats; test: Spinal nerve ligation (SNL) model of neuropathic pain; format: in vivo; conditions: rat, oral 3, 10 and 30 mg/kg, FIG. 4
Protocol: The SNL model (Kim and Chung 1992) was used to induce chronic neuropathic pain in rats. The rats were anesthetized with isoflurane, the left L5 transverse process was removed, and the L5 and L6 spinal nerves were tightly ligated with 6-0 silk suture. The wound was then closed with internal sutures and external staples. Following at least seven days post SNL, baseline, post-injury and post-treatment values for non-noxious mechanical sensitivity were evaluated using eight Semmes-Weinstein filaments (Stoelting, Wood Dale, Ill., USA) with varying stiffness (0.4, 0.7, 1.2, 2.0, 3.6, 5.5, 8.5, and 15 g) according to the up-down method (Chaplan et al. 1994). Animals were placed on a perforated metallic platform and allowed to acclimate to their surroundings for a minimum of thirty minutes before testing. The mean and standard error of the mean (SEM) were determined for the injured paw in each treatment group. Since this stimulus is normally not considered painful, significant injury-induced increases in responsiveness in this test are interpreted as a measure of mechanical allodynia. The dose which elicited 50% attenuation of mechanical hypersensitivity (ED50) was determined using linear regression analysis. Results obtained after oral administration of compound 317 at 3, 10 and 30 mg/kg and with compound 366 at 1, 3 and 10 mg/kg are shown in FIG. 4.

[2] = molecular target: T1, rat CB2 receptor (rCB2) (Rattus norvegicus, UniProt Q9QZN9); test: cell-based; format: cell-based; conditions: for +/− RCB2: agonist or inverse agonist at rCB2
T1 sequence (Q9QZN9 1-360): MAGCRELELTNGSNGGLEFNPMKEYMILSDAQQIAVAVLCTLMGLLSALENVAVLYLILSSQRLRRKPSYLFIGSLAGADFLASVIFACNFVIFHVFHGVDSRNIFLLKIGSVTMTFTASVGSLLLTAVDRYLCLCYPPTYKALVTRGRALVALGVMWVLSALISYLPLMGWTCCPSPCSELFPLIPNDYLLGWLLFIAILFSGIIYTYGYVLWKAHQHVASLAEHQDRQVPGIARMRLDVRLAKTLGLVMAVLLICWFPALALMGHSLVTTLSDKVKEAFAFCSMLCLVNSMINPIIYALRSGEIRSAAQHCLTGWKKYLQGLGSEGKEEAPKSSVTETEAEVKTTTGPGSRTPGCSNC
Procedure, shortened: (§1)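 Readout: LANCE TR-FRET cAMP, back-calculated from a concurrent standard curve and scaled between forskolin-only and forskolin + 1 μM CP55,940 wells. EC50 and intrinsic activity came from four-parameter fits.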

[3] = molecular target: human CB1 receptor (hCB1) (Homo sapiens, UniProt P21554); test: cell-based; format: cell-based
Chain of human CB1 receptor (hCB1) (P21554 whole entry): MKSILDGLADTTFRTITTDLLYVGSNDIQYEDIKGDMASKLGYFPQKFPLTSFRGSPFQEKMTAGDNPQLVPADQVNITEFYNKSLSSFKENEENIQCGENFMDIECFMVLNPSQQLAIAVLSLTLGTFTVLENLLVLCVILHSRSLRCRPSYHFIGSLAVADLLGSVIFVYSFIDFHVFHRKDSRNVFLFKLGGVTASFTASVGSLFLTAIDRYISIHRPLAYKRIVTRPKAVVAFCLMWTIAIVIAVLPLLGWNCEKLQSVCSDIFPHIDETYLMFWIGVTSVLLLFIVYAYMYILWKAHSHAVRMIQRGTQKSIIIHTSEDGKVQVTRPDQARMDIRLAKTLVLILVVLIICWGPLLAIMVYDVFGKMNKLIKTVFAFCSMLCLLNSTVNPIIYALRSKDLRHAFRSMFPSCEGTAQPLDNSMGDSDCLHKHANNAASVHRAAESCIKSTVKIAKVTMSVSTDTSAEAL
Procedure, shortened: as §1

[4] = system: Male Sprague-Dawley rats; test: Complete Freund's Adjuvant (CFA) model of inflammatory pain, Randall-Selitto paw pressure; format: in vivo; conditions: rat, intraperitoneal
Protocol: Male Sprague-Dawley rats (Hsd:Sprague-Dawley®™SD®™, Harlan, Indianapolis, Ind.) weighing 201±1 grams, were housed three per cage. Animals had free access to food and water and were maintained on a twelve hour light/dark schedule for the entire duration of the experiment. Approximately 12 hours prior to behavioral testing, animals were placed on wire mesh bottom cages with free access to water but no access to food. Test compounds were prepared in 50% PEG-400 (Sigma-Aldrich, cat. P3265). Indomethacin (Fluka, cat 57413) was suspended in 0.5% methylcellulose (Sigma-Aldrich, cat. 274429). Groups of eight animals were anesthetized with 2-3% isoflurane and local inflammation induced by 50 μl CFA (Sigma-Aldrich, cat F5881, Mycobacterium tuberculosis 1 mg/ml) injected subcutaneously into the plantar surface of the left paw.
Assessment of mechanical hyperalgesia: Baseline and post-treatment withdrawal thresholds to a noxious mechanical stimulus were measured using the Randall-Selitto paw pressure apparatus (Ugo Basile Analgesymeter, model 7200). […] Mechanical hyperalgesia was measured using the Randall-Selitto paw pressure device before CFA injection and after intraperitoneal (i.p.) compound administration over a twenty-four-hour period. The mean and standard error of the mean (SEM) were determined for the injured and normal paws for each treatment group.

| SMILES | effect in the neuropathic pain model [1] | +/− RCB2 [2] | pEC50 [3] | side effects during the experiment [4] | +/− HCB1 ([3]; agonist or inverse agonist at hCB1) | pEC50 [2] |
| --- | --- | --- | --- | --- | --- | --- |
| CNC(=O)[C@@H](NC(=O)c1nc(-c2ccccc2)n2c1CN(C)CCC2)C(C)(C)C [Compound 317, (S)-N-(3,3-dimethyl-1-(methylamino)-1-oxobutan-2-yl)-8-methyl-3-phenyl-6,7,8,9-tetrahydro-5H-imidazo[1,5-a][1,4]diazepine-1-carboxamide] | dose response in the neuropathic pain model | + | < 5.00 |  |  |  |
| CCS(=O)(=O)N1CCn2c(-c3ccccc3)nc(C(=O)N[C@H](C(=O)NC)C(C)(C)C)c2C1 [Compound 91, (S)-N-(3,3-dimethyl-1-(methylamino)-1-oxobutan-2-yl)-7-(ethylsulfonyl)-3-phenyl-5,6,7,8-tetrahydroimidazo[1,5-a]pyrazine-1-carboxamide] |  | − | < 5.00 | No side effects were observed |  |  |
| CNC(=O)[C@@H](NC(=O)c1nc(-c2ccc(Cl)cc2F)n2c1CN(C)CCC2)C(C)(C)C [Compound 366, (S)-3-(4-chloro-2-fluorophenyl)-N-(3,3-dimethyl-1-(methylamino)-1-oxobutan-2-yl)-8-methyl-6,7,8,9-tetrahydro-5H-imidazo[1,5-a][1,4]diazepine-1-carboxamide] | dose response in the neuropathic pain model | + |  |  | + |  |
| CNC(=O)[C@@H](NC(=O)c1nc(-c2ccc(F)cc2)n2c1CN(C)CCC2)C(C)(C)C [Compound 437, (S)-N-(3,3-dimethyl-1-(methylamino)-1-oxobutan-2-yl)-3-(4-fluorophenyl)-8-methyl-6,7,8,9-tetrahydro-5H-imidazo[1,5-a][1,4]diazepine-1-carboxamide] |  |  | < 5.00 |  |  | < 5.00 |
